Measurements published in patent US9315520B2, “2-amino-6-methyl-4,4a,5,6-tetrahydropyrano[3,4-d][1,3]thiazin-8a(8H)-yl-1,3-thiazol-4-yl amides” (Pfizer Inc., priority 2014, dated 2016).
Where a name gives a salt, the structure may show the parent alone.

Target: BACE1 (Homo sapiens (Human), UniProt P56817)
Test: BACE1 Cell-Free Assay (fluorescence polarization)
Assay type: biochemical
Settings: geometric mean of 2-4 determinations unless otherwise indicated (b: ≧5; c: single determination); read-out: BACE1 Cell-free Assay IC50
Source text: This assay measures the inhibition of the beta-secretase enzyme as it cleaves a non-native peptide.
A synthetic APP substrate that can be cleaved by beta-secretase having N-terminal biotin and made fluorescent by the covalent attachment of Oregon Green at the Cys residue is used to assay beta-secretase activity in the presence or absence of the inhibitory compounds. […] The BACE1 enzyme is affinity purified material from conditioned media of CHO-K1 cells that have been transfected with a soluble BACE construct (BACE1deltaTM96His). […] Plates are covered and incubated for 3 hours at 37° C. […] The activity of the beta-secretase enzyme is detected by changes in the fluorescence polarization that occur when the substrate is cleaved by the enzyme.

BACE1, sequence (P56817 46-457): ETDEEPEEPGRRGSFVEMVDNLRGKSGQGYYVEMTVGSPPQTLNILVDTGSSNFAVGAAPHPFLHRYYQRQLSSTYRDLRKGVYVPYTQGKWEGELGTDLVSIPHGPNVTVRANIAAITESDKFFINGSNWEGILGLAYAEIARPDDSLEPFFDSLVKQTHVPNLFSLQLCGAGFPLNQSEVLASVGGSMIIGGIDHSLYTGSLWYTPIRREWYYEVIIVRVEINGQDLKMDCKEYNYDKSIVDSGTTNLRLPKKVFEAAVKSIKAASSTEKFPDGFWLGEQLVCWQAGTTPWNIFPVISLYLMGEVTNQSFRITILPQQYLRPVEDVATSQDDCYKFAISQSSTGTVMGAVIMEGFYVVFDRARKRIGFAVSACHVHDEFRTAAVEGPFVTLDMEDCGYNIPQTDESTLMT

Row | IC50 [µM] | SMILES
1 | 0.091 | Cc1nc(C(=O)Nc2csc([C@]34CO[C@@H](C)C[C@H]3CSC(N)=N4)n2)no1 [Example 52, N-{2-[(4aR,6S,8aR)-2-amino-6-methyl-4,4a,5,6-tetrahydropyrano[3,4-d][1,3]thiazin-8a(8H)-yl]-1,3-thiazol-4-yl}-5-methyl-1,2,4-oxadiazole-3-carboxamide]
2 | 0.065 | Cc1nc(C(=O)Nc2csc([C@]34CO[C@@H](C)C[C@H]3CSC(N)=N4)n2)c(C)o1 [Example 53, N-{2-[(4aR,6S,8aR)-2-amino-6-methyl-4,4a,5,6-tetrahydropyrano[3,4-d][1,3]thiazin-8a(8H)-yl]-1,3-thiazol-4-yl}-2,5-dimethyl-1,3-oxazole-4-carboxamide]
3 | 0.161 | C[C@H]1C[C@H]2CSC(N)=N[C@@]2(c2nc(NC(=O)c3cnc(OCC4CC4)cn3)cs2)CO1 [Example 54, N-{2-[(4aR,6S,8aR)-2-amino-6-methyl-4,4a,5,6-tetrahydropyrano[3,4-d][1,3]thiazin-8a(8H)-yl]-1,3-thiazol-4-yl}-5-(cyclopropylmethoxy)pyrazine-2-carboxamide]
4 | 0.519 | C[C@H]1C[C@H]2CSC(N)=N[C@@]2(c2nc(NC(=O)c3cnc(OC4CC4)cn3)cs2)CO1 [Example 55, N-{2-[(4aR,6S,8aR)-2-amino-6-methyl-4,4a,5,6-tetrahydropyrano[3,4-d][1,3]thiazin-8a(8H)-yl]-1,3-thiazol-4-yl}-5-(cyclopropyloxy)pyrazine-2-carboxamide]
5 | 0.36 | C[C@@H](F)COc1cnc(C(=O)Nc2csc([C@]34CO[C@@H](C)C[C@H]3CSC(N)=N4)n2)cn1 [Example 56, N-{2-[(4aR,6S,8aR)-2-amino-6-methyl-4,4a,5,6-tetrahydropyrano[3,4-d][1,3]thiazin-8a(8H)-yl]-1,3-thiazol-4-yl}-5-{[(2R)-2-fluoropropyl]oxy}pyrazine-2-carboxamide]
6 | 0.372 | C[C@H](F)COc1cnc(C(=O)Nc2csc([C@]34CO[C@@H](C)C[C@H]3CSC(N)=N4)n2)cn1 [Example 57, N-{2-[(4aR,6S,8aR)-2-amino-6-methyl-4,4a,5,6-tetrahydropyrano[3,4-d][1,3]thiazin-8a(8H)-yl]-1,3-thiazol-4-yl}-5-{[(2S)-2-fluoropropyl]oxy}pyrazine-2-carboxamide]
7 | 0.161 | C[C@H]1C[C@H]2CSC(N)=N[C@@]2(c2nc(NC(=O)c3cnc(OCC(C)(F)F)cn3)cs2)CO1 [Example 58, N-{2-[(4aR,6S,8aR)-2-amino-6-methyl-4,4a,5,6-tetrahydropyrano[3,4-d][1,3]thiazin-8a(8H)-yl]-1,3-thiazol-4-yl}-5-(2,2-difluoropropoxy)pyrazine-2-carboxamide]
8 | 1.83 | CC(C)n1cnc(C(=O)Nc2csc([C@]34CO[C@@H](C)C[C@H]3CSC(N)=N4)n2)c1 [Example 61, N-{2-[(4aR,6S,8aR)-2-amino-6-methyl-4,4a,5,6-tetrahydropyrano[3,4-d][1,3]thiazin-8a(8H)-yl]-1,3-thiazol-4-yl}-1-(propan-2-yl)-1H-imidazole-4-carboxamide, trifluoroacetate salt]
9 | 3.94 | C[C@H]1C[C@H]2CSC(N)=N[C@@]2(c2nc(NC(=O)c3cnn(C)c3)cs2)CO1 [Example 63, N-{2-[(4aR,6S,8aR)-2-amino-6-methyl-4,4a,5,6-tetrahydropyrano[3,4-d][1,3]thiazin-8a(8H)-yl]-1,3-thiazol-4-yl}-1-methyl-1H-pyrazole-4-carboxamide, trifluoroacetate salt]
10 | 2.62 | Cc1cc(C(=O)Nc2csc([C@]34CO[C@@H](C)C[C@H]3CSC(N)=N4)n2)no1 [Example 64, N-{2-[(4aR,6S,8aR)-2-amino-6-methyl-4,4a,5,6-tetrahydropyrano[3,4-d][1,3]thiazin-8a(8H)-yl]-1,3-thiazol-4-yl}-5-methyl-1,2-oxazole-3-carboxamide, trifluoroacetate salt]
11 | 51 | CC(C)Cc1cc(C(=O)Nc2csc([C@]34CO[C@@H](C)C[C@H]3CSC(N)=N4)n2)nn1C [Example 65, N-{2-[(4aR,6S,8aR)-2-amino-6-methyl-4,4a,5,6-tetrahydropyrano[3,4-d][1,3]thiazin-8a(8H)-yl]-1,3-thiazol-4-yl}-1-methyl-5-(2-methylpropyl)-1H-pyrazole-3-carboxamide, trifluoroacetate salt]
12 | 5.04 | Cc1cc(C(=O)Nc2csc([C@]34CO[C@@H](C)C[C@H]3CSC(N)=N4)n2)on1 [Example 67, N-{2-[(4aR,6S,8aR)-2-amino-6-methyl-4,4a,5,6-tetrahydropyrano[3,4-d][1,3]thiazin-8a(8H)-yl]-1,3-thiazol-4-yl}-3-methyl-1,2-oxazole-5-carboxamide, trifluoroacetate salt]
13 | 10.4 | CC(C)c1cc(C(=O)Nc2csc([C@]34CO[C@@H](C)C[C@H]3CSC(N)=N4)n2)n(C)n1 [Example 70, N-{2-[(4aR,6S,8aR)-2-amino-6-methyl-4,4a,5,6-tetrahydropyrano[3,4-d][1,3]thiazin-8a(8H)-yl]-1,3-thiazol-4-yl}-1-methyl-3-(propan-2-yl)-1H-pyrazole-5-carboxamide, trifluoroacetate salt]
14 | 9.26 | CCc1cc(C(=O)Nc2csc([C@]34CO[C@@H](C)C[C@H]3CSC(N)=N4)n2)on1 [Example 71, N-{2-[(4aR,6S,8aR)-2-amino-6-methyl-4,4a,5,6-tetrahydropyrano[3,4-d][1,3]thiazin-8a(8H)-yl]-1,3-thiazol-4-yl}-3-ethyl-1,2-oxazole-5-carboxamide, trifluoroacetate salt]
15 | 7.48 | CCn1cc(C(=O)Nc2csc([C@]34CO[C@@H](C)C[C@H]3CSC(N)=N4)n2)cn1 [Example 72, N-{2-[(4aR,6S,8aR)-2-amino-6-methyl-4,4a,5,6-tetrahydropyrano[3,4-d][1,3]thiazin-8a(8H)-yl]-1,3-thiazol-4-yl}-1-ethyl-1H-pyrazole-4-carboxamide, trifluoroacetate salt]
16 | 12.4 | Cc1cc(C(=O)Nc2csc([C@]34CO[C@@H](C)C[C@H]3CSC(N)=N4)n2)nn1C [Example 73, N-{2-[(4aR,6S,8aR)-2-amino-6-methyl-4,4a,5,6-tetrahydropyrano[3,4-d][1,3]thiazin-8a(8H)-yl]-1,3-thiazol-4-yl}-1,5-dimethyl-1H-pyrazole-3-carboxamide, trifluoroacetate salt]
17 | 28.1 | C[C@H]1C[C@H]2CSC(N)=N[C@@]2(c2nc(NC(=O)c3cn(C)nn3)cs2)CO1 [Example 76, N-{2-[(4aR,6S,8aR)-2-amino-6-methyl-4,4a,5,6-tetrahydropyrano[3,4-d][1,3]thiazin-8a(8H)-yl]-1,3-thiazol-4-yl}-1-methyl-1H-1,2,3-triazole-4-carboxamide, trifluoroacetate salt]

Row | SMILES | IC50 [µM]
18 | Cc1nc(C)c(C(=O)Nc2csc([C@]34CO[C@@H](C)C[C@H]3CSC(N)=N4)n2)o1 [Example 59, N-{2-[(4aR,6S,8aR)-2-amino-6-methyl-4,4a,5,6-tetrahydropyrano[3,4-d][1,3]thiazin-8a(8H)-yl]-1,3-thiazol-4-yl}-2,4-dimethyl-1,3-oxazole-5-carboxamide, trifluoroacetate salt] | 0.74
19 | C[C@H]1C[C@H]2CSC(N)=N[C@@]2(c2nc(NC(=O)c3cn(C)nc3C(F)(F)F)cs2)CO1 [Example 60, N-{2-[(4aR,6S,8aR)-2-amino-6-methyl-4,4a,5,6-tetrahydropyrano[3,4-d][1,3]thiazin-8a(8H)-yl]-1,3-thiazol-4-yl}-1-methyl-3-(trifluoromethyl)-1H-pyrazole-4-carboxamide, trifluoroacetate salt] | 3.84
20 | CC(C)Cc1cc(C(=O)Nc2csc([C@]34CO[C@@H](C)C[C@H]3CSC(N)=N4)n2)no1 [Example 62, N-{2-[(4aR,6S,8aR)-2-amino-6-methyl-4,4a,5,6-tetrahydropyrano[3,4-d][1,3]thiazin-8a(8H)-yl]-1,3-thiazol-4-yl}-5-(2-methylpropyl)-1,2-oxazole-3-carboxamide, trifluoroacetate salt] | 9.69
21 | C[C@H]1C[C@H]2CSC(N)=N[C@@]2(c2nc(NC(=O)c3ccncn3)cs2)CO1 [Example 66, N-{2-[(4aR,6S,8aR)-2-amino-6-methyl-4,4a,5,6-tetrahydropyrano[3,4-d][1,3]thiazin-8a(8H)-yl]-1,3-thiazol-4-yl}pyrimidine-4-carboxamide, trifluoroacetate salt] | 0.575
22 | Cc1cnc(C(=O)Nc2csc([C@]34CO[C@@H](C)C[C@H]3CSC(N)=N4)n2)cn1 [Example 68, N-{2-[(4aR,6S,8aR)-2-amino-6-methyl-4,4a,5,6-tetrahydropyrano[3,4-d][1,3]thiazin-8a(8H)-yl]-1,3-thiazol-4-yl}-5-methylpyrazine-2-carboxamide, trifluoroacetate salt] | 2.11
23 | C[C@H]1C[C@H]2CSC(N)=N[C@@]2(c2nc(NC(=O)c3ncnn3C)cs2)CO1 [Example 74, N-{2-[(4aR,6S,8aR)-2-amino-6-methyl-4,4a,5,6-tetrahydropyrano[3,4-d][1,3]thiazin-8a(8H)-yl]-1,3-thiazol-4-yl}-1-methyl-1H-1,2,4-triazole-5-carboxamide, trifluoroacetate salt] | 4.56
24 | C[C@H]1C[C@H]2CSC(N)=N[C@@]2(c2nc(NC(=O)c3cn(C)cn3)cs2)CO1 [Example 75, N-{2-[(4aR,6S,8aR)-2-amino-6-methyl-4,4a,5,6-tetrahydropyrano[3,4-d][1,3]thiazin-8a(8H)-yl]-1,3-thiazol-4-yl}-1-methyl-1H-imidazole-4-carboxamide, trifluoroacetate salt] | 18.2
